From patent US20240101570A1 (AMGEN INC., priority 2020, published 2024)

How the values were obtained:
[1] = test system: HCT116 WT cells; assay: HCT116 WT cell proliferation / viability (CellTiter-Glo, 6 days); type: cell-based; conditions: Homo sapiens, HCT-116, 144 h, HCT116 WT cells, 6 days, CellTiter-Glo; read-out: HCT-116 WT IC50
Summary of the method: (§1)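 Viability read by CellTiter-Glo after 6-day compound exposure of MTAP-null and wild-type HCT116 cells grown in RPMI 1640 with 10% FBS. Dosing used 1:3 steps from 1 or 10 μM (8-9 points) or 1:2 steps from 10 or 50 μM (22 points); IC50 taken where fitted curve crosses 50% of control.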

[2] = test system: HCT116 MTAP null cells; assay: HCT116 MTAP null cell proliferation / viability (CellTiter-Glo, 6 days); type: cell-based; conditions: HCT116-MTAP null, 144 h, HCT116 MTAP null cells, 6 days, CellTiter-Glo; read-out: HCT-116 MTAP null IC50
Summary of the method: as §1

Compound	IC50 [1] [nM]	IC50 [2] [nM]
Nc1nc2cc(F)c(C(=O)N(Cc3ccc(C(F)(F)F)cn3)C34CC(C3)C4)cc2c2c1COC2 [Example 381, 4-amino-N-(bicyclo[1.1.1]pentan-1-yl)-7-fluoro-N-((5-(trifluoromethyl)-2-pyridinyl)methyl)-1,3-dihydrofuro[3,4-c]quinoline-8-carboxamide]	1560	8
CC(C)N(Cc1ccc(C2CC2)nc1)C(=O)c1cc2c3c(c(N)nc2cn1)COC3 [Example 383, 4-amino-N-((6-cyclopropyl-3-pyridinyl)methyl)-N-(2-propanyl)-1,3-dihydrofuro[3,4-c][1,7]naphthyridine-8-carboxamide]	43000	1310
CC(C)N(Cc1ccc(C(F)(F)F)cn1)C(=O)c1ccc2nc(N)c3c(c2c1)CO[C@@H]3C [Example 384, (3R)-4-amino-3-methyl-N-(2-propanyl)-N-((5-(trifluoromethyl)-2-pyridinyl)methyl)-1,3-dihydrofuro[3,4-c]quinoline-8-carboxamide]	1380	53
C[C@H]1OCc2c1c(N)nc1ccc(C(=O)N(C)Cc3ccc(C#N)cn3)cc21 [Example 386, (3R)-4-amino-N-((5-cyano-2-pyridinyl)methyl)-N,3-dimethyl-1,3-dihydrofuro[3,4-c]quinoline-8-carboxamide]	30300	455
CCOc1ccc(CN(C(=O)c2ccc3nc(N)c4c(c3c2)COC4)C23CC(C2)C3)nn1 [Example 387, 4-amino-N-(bicyclo[1.1.1]pentan-1-yl)-N-((6-ethoxy-3-pyridazinyl)methyl)-1,3-dihydrofuro[3,4-c]quinoline-8-carboxamide]	4040	175
CN(Cc1ccc(C(F)(F)F)nn1)C(=O)c1cc2c3c(c(N)nc2cc1Cl)COC3 [Example 389, 4-amino-7-chloro-N-methyl-N-((6-(trifluoromethyl)-3-pyridazinyl)methyl)-1,3-dihydrofuro[3,4-c]quinoline-8-carboxamide]	3390	50
CC(C)N(Cc1ccc(C#N)cn1)C(=O)c1cc2c3c(c(N)nc2cc1Cl)COC3 [Example 392, 4-amino-7-chloro-N-((5-cyano-2-pyridinyl)methyl)-N-(2-propanyl)-1,3-dihydrofuro[3,4-c]quinoline-8-carboxamide]	1540	57

The remaining compounds from weak to strong by IC50 [1], led by results:

IC50 [1] [nM]	IC50 [2] [nM]	Compound
22800	1160	Nc1nc2cnc(C(=O)N(Cc3ccc(C(F)(F)F)nn3)C3CC3)cc2c2c1COC2 [Example 382, 4-amino-N-cyclopropyl-N-((6-(trifluoromethyl)-3-pyridazinyl)methyl)-1,3-dihydrofuro[3,4-c][1,7]naphthyridine-8-carboxamide]
7280	157	CC(C)N(Cc1ccc(C2CC2)cn1)C(=O)c1cc2c3c(c(N)nc2cn1)COC3 [Example 385, 4-amino-N-((5-cyclopropyl-2-pyridinyl)methyl)-N-(2-propanyl)-1,3-dihydrofuro[3,4-c][1,7]naphthyridine-8-carboxamide]
4540	91	CC(C)N(Cc1ccc(C(F)(F)F)nn1)C(=O)c1ccc2nc(N)c3c(c2c1)COC3 [Example 391, 4-amino-N-(2-propanyl)-N-((6-(trifluoromethyl)-3-pyridazinyl)methyl)-1,3-dihydrofuro[3,4-c]quinoline-8-carboxamide]
4100	56	C[C@H]1OCc2c1c(N)nc1ccc(C(=O)N(Cc3ccc(C(F)(F)F)cn3)C34CC(C3)C4)cc21 [Example 380, (3R)-4-amino-N-(bicyclo[1.1.1]pentan-1-yl)-3-methyl-N-((5-(trifluoromethyl)-2-pyridinyl)methyl)-1,3-dihydrofuro[3,4-c]quinoline-8-carboxamide]
1280	54	CCOc1ccc(CN(C(=O)c2cc3c4c(c(N)nc3cn2)COC4)[C@H](C)COC)nn1 [Example 388, 4-amino-N-((6-ethoxy-3-pyridazinyl)methyl)-N-((2R)-1-methoxy-2-propanyl)-1,3-dihydrofuro[3,4-c][1,7]naphthyridine-8-carboxamide]
